Laboratory results: patent US20240002441A1, “PEPTIDES AND USES THEREOF IN MODULATION OF AMYLOID-BETA PROTEIN DEGRADING PROTEASES” (priority 2020, published 2024)
Like-named read-outs stand apart in the source and are kept apart here.

How the values were obtained:
[1] = Peptide stability control, medium with no cells (Example 4); type: in vitro ADME; conditions: media only (no cells), possible adherence to plastic
Protocol: HEK293 (passage 24) or Ea.hy926 (passage 37) were seeded into tissue-culture-grade 96-well plates at a density of 20,000 cells/well. After 24 hr, cells were washed with PBS and replaced with Opti-MEM reduced serum media containing SEQ ID NO:1 or SEQ ID NO:2 (9 μM). Aliquots of equal volume were taken at T=0 and 60 min. SEQ ID NO:2 was added to control wells having media (no cells) only. Samples were immediately acidified in 0.1% TFA, snap frozen in dry ice and stored in −80° C. until analysed by LCMS.
Samples were analyzed by LC-MS/MS on a Shimadzu Nexera uHPLC (Japan) coupled to a Triple Tof 5600 mass spectrometer (ABSCIEX, Canada) equipped with a duo electrospray ion source. One μL of each extract was injected onto a 2.1 mm×100 mm Zorbax C18 1.8 um column (Agilent) at 200 μL/min. Linear gradients of 1-50% solvent B over 7 min at 200 uL/min flow rate, followed by a steeper gradient from 50% to 98% solvent B in 1 min were used for peptide elution. Solvent B was held at 98% for 3 min for washing the column and returned to 1% solvent B for equilibration prior to the next sample injection. […] SEQ ID NO:1 and SEQ ID NO:2 were quantified using the […] doubly charged molecular ion from m/z 510.270 to 510.325. The data was acquired using Analyst TF 1.6 and quantification was carried out using MultiQuant 2.1.1 software (ABSCIEX, Canada).

SARS-CoV-2 = type: cell-based; conditions: pre-treatment, Vero cells, 8 h
5×FAD transgenic mice = experiment: 5×FAD transgenic mouse model of Alzheimer's Disease (Example 15); type: in vivo
Protocol: All animal experiments were conducted in strict accordance with the Australian Code of Practice for the Care and Use of Animals for Scientific Purposes. Local approval was obtained from The University of Queensland's Animal Ethics Committee. All wild-type (WT) and transgenic mice (5×FAD tg) used were from the same litters to act as appropriate littermate controls. Thirty-four 2.5-3-month-old female and twenty-five 2.5-3-month-old male mice were used in this study. Animals were housed in groups of 3-5 animals per cage and maintained on a 12 hr light-dark cycle. Food and water were provided ad libitum.
All testing was conducted between 8 AM-6 PM, at approximately the same time each day. Prior to commencing any behavioural testing, mice were habituated to handling and handler smell to minimize handling-related stress. Each mouse was handled daily by the experimenter conducting the behavioural tasks for 30-s to 1-min each day. Handling involved picking up the mouse (by the base of the tail) from the home cage and placing in the palm of a gloved hand. This process was repeated daily, at approximately the same time each day, for a total of 8 days prior to testing. The bedding of the animals' home cage was not changed 2-days prior habituation to handling and for the duration of the behavioural tests. […]
The Active Place Avoidance (APA) task assessing longer-term spatial learning and memory was conducted on all mice as previously described (Willis E F, Bartlett P F, Vukovic J. Protocol for Short- and Longer-term Spatial Learning and Memory in Mice. Front Behav Neurosci. 2017; 11:197. https://doi:10.3389/fnbeh.2017.00197). The APA arena (Bio-Signal Group, NY, USA) consisted of a 77 cm diameter metal grid floor fenced by a 32 cm high Perspex clear circular boundary. The elevated arena sits directly below a digital video camera (Point Gray, USA) and in the middle of the room with visual cues placed on all 4 of the room walls. The visual cues consisted of black and white symbols printed on A3-sized paper. Visual cues were randomly chosen and kept constant for the 5-days of testing, and a different set of visual cues were used for post-2A treatment testing. Room lighting was set at 62-63% white light and light intensity recordings were taken by placing the luxmeter in the centre of the arena before the start of each session and kept between 60-70 lux.
The arena was set to rotate clockwise (1 rpm). The shock zone where a brief electric shock (500 ms, 0.5 mA, track-dependent) is delivered through the grid floor, is set at a 270° (pre-2A treatment) or 90° (post-2A treatment) angle and width of 60°. […] Mice were to actively avoid this shock zone while the arena rotates clockwise.
The position of the mouse in the arena was tracked using an overhead camera linked to Tracker software (Bio-Signal Group). When the centre-point of the mouse entered the shock zone, as tracked by the overhead camera linked to the tracking software, it received an electric shock. During the trials, the researcher sat quietly behind a curtain, out of view of the arena. After the completion of a trial, each mouse was returned to the home cage and the metal grid, clear Perspex boundary and underlying floor were cleaned with 70% ethanol. All scat and urine were removed following the completion of the trial.
Peptide of SEQ ID NO. 2 was dissolved in dimethyl sulfoxide (DMSO), and subsequently diluted in Dulbecco's phosphate-buffered saline (DPBS; 10% DMSO final). Pre-treatment open field/activity monitor data was used as the pseudorandomisation parameter for assigning animals to treatment groups. At 12-14 weeks, male and female 5×FAD and WT littermates were intranasally administered either 10% DMSO in DPBS as vehicle treatment or SEQ ID NO. 2 in DPBS (1 mg/kg). Treatment commenced immediately after the completion of pre-treatment behavioural testing and was administered every other day for 1 month. Body weight was measured every second day prior to intranasal dosing. […]

Substance: H-SLFELGKMIL-NH2 [SEQ ID NO:2, H2N-SLFELGKMIL-NH2]
- amount remaining in the medium with no cells after 60 min [1]: 63%±14%
- viral titre compared to PBS (SARS-CoV-2; 200 ng/μL): significantly reduced
- viral RNA compared to PBS (SARS-CoV-2; 400 ng/μL): significantly reduced
- viral titre compared to PBS (SARS-CoV-2; 400 ng/μL): significantly reduced
- active place avoidance behaviour, 5-day post-treatment performance (5×FAD transgenic mice; Tg mice, peptide versus vehicle): improved avoidance behavior
- IL-6 protein level in the cortex compared to Tg mice treated with vehicle (5×FAD transgenic mice; Tg mice, western blotting): reduction
- TNF-α protein level in the cortex compared to Tg mice treated with vehicle (5×FAD transgenic mice; Tg mice, western blotting): reduction
- number of shocks in the APA task at day 5 of testing, post-treatment versus pre-treatment (5×FAD transgenic mice; WT or Tg mice treated with peptide): significantly more
- frequency of entry to the novel arm in y-maze test, as % of entries to all other arms, pre-treatment compared with post-treatment (5×FAD transgenic mice; between groups): did not show significant difference
- number of shocks received post-treatment (5×FAD transgenic mice; between groups): not significantly different
- time in the centre in the open field/activity test (5×FAD transgenic mice; each group of mice, pre- versus post-treatment): not significantly different
